Legend:
IRAK4 = IRAK4 (Homo sapiens (Human), UniProt Q9NWZ3); assay: IRAK4 Inhibition Assay; type: biochemical; conditions: ATP 500 μM; IRAK4 0.6 nM
Summary of the method: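 Readout: electrophoretic (LabChip) separation of fluorescent peptide substrate from phosphorylated product after EDTA quench. Reactions ran 60 min at room temperature with 0.6 nM IRAK4, 1.5 μM peptide and 500 μM ATP; inhibition referenced to no-enzyme (100%) and vehicle (0%) controls.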

Caco Permeability Assay = type: in vitro ADME; conditions: human, Caco-2, Caco-2 cells, 3 μM compound
Protocol: Thirteen to 27 days prior to assay, Caco-2 cells were seeded onto collagen-coated polycarbonate filter membranes in 24-well transwell plates at a density of 1.45×10^5 cells/cm^2, approximately 4.8×10^4 cells per well. The cells were grown in a culture medium consisting of DMEM supplemented with 10% fetal bovine serum, 10 mM HEPES, 1% nonessential amino acids, 2 mM L-glutamine, 100 U/mL penicillin-G, and 100 μg/mL streptomycin. The culture medium was replaced every 3 days and the cells were maintained at 37° C. in a 95% relative humidity and 5% CO2 atmosphere. The cells were evaluated for tight junction formation just prior to assay. The test compound was solubilized to 10 mM in 100% DMSO and diluted to 3 μM in assay buffer. Permeability studies were initiated by adding 200 μL assay buffer plus/minus compound to the apical transwell compartment and 600 μL assay buffer plus/minus compound to the basolateral compartment of the 24-well transwell low-binding cluster plate. For apical-to-basolateral (A to B) permeability (absorptive direction), buffer containing compound was placed in the apical compartment (donor wells), while buffer alone was placed in the corresponding basolateral compartments (receiver wells). For basolateral-to-apical (B to A) permeability (secretive direction), buffer containing compound was placed in the basolateral compartment (donor wells), while buffer alone was placed in the corresponding apical compartments (receiver wells). Transwells were then incubated for 2 hours at 37° C. in a 95% relative humidity and 5% CO2 atmosphere with gentle agitation. Following incubation, 100 μL was removed from each apical and basolateral compartment and transferred to 96-well low binding plates that had been previously loaded with 100 µL/well of acetonitrile containing 250 nM propranolol, 250 nM diclofenac, and 500 nM tolbutamide as internal standards. The samples were subsequently analyzed by LC-MS/MS to determine concentrations of compound.

[1] = test system: IL-6 levels in human whole blood stimulated with a TLR2 agonist; assay: IRAK4 Whole Blood Assay (lipoteichoic acid/TLR2-stimulated IL-6); type: cell-based; conditions: Homo sapiens, lipoteichoic acid 10 μg/mL, IL-6 readout
Summary of the method: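 IL-6 was quantified by cytometric bead assay in supernatants of human blood (ACD-A) stimulated for 5 h with lipoteichoic acid at 10 μg/mL final. Compound exposure preceded stimulation for 60 min at 37 °C, 5% CO2.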

Sequence of IRAK4 (Q9NWZ3 whole entry): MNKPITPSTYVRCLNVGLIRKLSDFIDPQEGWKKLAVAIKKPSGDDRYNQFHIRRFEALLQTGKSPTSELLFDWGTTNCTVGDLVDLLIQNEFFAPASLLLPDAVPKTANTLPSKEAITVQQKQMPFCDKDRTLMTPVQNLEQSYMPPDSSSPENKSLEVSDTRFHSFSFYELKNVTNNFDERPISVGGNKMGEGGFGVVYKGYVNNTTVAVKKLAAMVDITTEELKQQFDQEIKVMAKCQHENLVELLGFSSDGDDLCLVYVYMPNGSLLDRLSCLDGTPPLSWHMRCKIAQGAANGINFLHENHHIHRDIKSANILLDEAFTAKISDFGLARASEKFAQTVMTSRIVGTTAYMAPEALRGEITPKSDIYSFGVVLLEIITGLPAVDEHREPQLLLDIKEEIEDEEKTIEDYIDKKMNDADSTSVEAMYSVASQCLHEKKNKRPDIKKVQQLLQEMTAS

| IC50 (IRAK4) [nM] | Papp at 2 h, 3 µM (Caco Permeability Assay) [×10⁻⁶ cm/s] | EC50 [1] [nM] | Compound |
| --- | --- | --- | --- |
| 2 | < 1.5 | 130 | CC(C)(O)[C@H](F)CNC(=O)c1cnc(-c2cnc3cc(C#N)cnn23)cc1Nc1cnn(C2CC(F)(F)C2)c1 [Example 259, (R)-6-(7-cyanoimidazo[1,2-b]pyridazin-3-yl)-4-((1-(3,3-difluorocyclobutyl)-1H-pyrazol-4-yl)amino)-N-(2-fluoro-3-hydroxy-3-methylbutyl)nicotinamide] |
| 3 | < 1.5 | 90 | CC(C)(O)[C@H](F)CNC(=O)c1cnc(-c2cnc3cc(C#N)cnn23)cc1NC1COC1 [Example 147, (R)-6-(7-cyanoimidazo[1,2-b]pyridazin-3-yl)-N-(2-fluoro-3-hydroxy-3-methylbutyl)-4-(oxetan-3-ylamino) nicotinamide] |
| 6 | 19.7 | 1820 | C[C@H](F)CNc1cc(-c2cnn3cc(Cl)cnc23)ncc1C(=O)NC[C@@H](F)C(C)(C)O [Example 61, 6-(6-chloropyrazolo[1,5-a]pyrimidin-3-yl)-N—((R)-2-fluoro-3-hydroxy-3-methylbutyl)-4-(((S)-2-fluoropropyl)amino)nicotinamide] |
| 3 | 19 | 100 | CC(C)Nc1cc(-c2cnc3cc(Cl)cnn23)ncc1C(=O)NC[C@@H](F)C(C)(C)O [Example 142, (R)-6-(7-chloroimidazo[1,2-b]pyridazin-3-yl)-N-(2-fluoro-3-hydroxy-3-methylbutyl)-4-(isopropylamino)nicotinamide] |
| 4 | 14.2 | 380 | CC(C)(O)[C@H](F)CNC(=O)c1cnc(-c2cnn3cc(Cl)cnc23)cc1NC1CCOCC1 [Example 30, (R)-6-(6-chloropyrazolo[1,5-a]pyrimidin-3-yl)-N-(2-fluoro-3-hydroxy-3-methylbutyl)-4-((tetrahydro-2H-pyran-4-yl)amino)nicotinamide] |
| 9 | 11.3 | 580 | CC(C)(F)Cn1ccc(Nc2cc(-c3cnn4cc(Cl)cnc34)ncc2C(=O)NC[C@@H](F)C(C)(C)O)n1 [Example 229, (R)-6-(6-chloropyrazolo[1,5-a]pyrimidin-3-yl)-4-((1-(2-fluoro-2-methylpropyl)-1H-pyrazol-3-yl)amino)-N-(2-fluoro-3-hydroxy-3-methylbutyl)nicotinamide] |
| 6 | 19.1 | 760 | CC(C)(O)[C@H](F)CNC(=O)c1cnc(-c2cnn3cc(Cl)cnc23)cc1NCC(F)F [Example 163, (R)-6-(6-chloropyrazolo[1,5-a]pyrimidin-3-yl)-4-((2,2-difluoroethyl)amino)-N-(2-fluoro-3-hydroxy-3-methylbutyl) nicotinamide] |
| 2 | 21.3 | 300 | CC(C)(F)[C@H](F)CNC(=O)c1cnc(-c2cnc3cc(Cl)cnn23)cc1Nc1cnn(CC(F)F)c1 [Example 263, (R)-6-(7-chloroimidazo[1,2-b]pyridazin-3-yl)-N-(2,3-difluoro-3-methylbutyl)-4-((1-(2,2-difluoroethyl)-1H-pyrazol-4-yl)amino)nicotinamide] |
| 2 | 2.3 | 200 | CC(C)(F)Cn1cc(Nc2cc(-c3cnn4cc(C#N)cnc34)ncc2C(=O)NC[C@@H](F)C(C)(C)O)cn1 [Example 235, (R)-6-(6-cyanopyrazolo[1,5-a]pyrimidin-3-yl)-4-((1-(2-fluoro-2-methylpropyl)-1H-pyrazol-4-yl)amino)-N-(2-fluoro-3-hydroxy-3-methylbutyl)nicotinamide] |
| 4 | 21.5 | 710 | CCNc1cc(-c2cnc3cc(Cl)cnn23)ncc1C(=O)NC[C@@H](F)C(C)(C)O [Example 178, (R)-6-(7-chloroimidazo[1,2-b]pyridazin-3-yl)-4-(ethylamino)-N-(2-fluoro-3-hydroxy-3-methylbutyl)nicotinamide] |
| 3 | < 1.5 | 160 | COCCn1cc(Nc2cc(-c3cnn4cc(C#N)cnc34)ncc2C(=O)NC[C@@H](F)C(C)(C)O)cn1 [Example 243, (R)-6-(6-cyanopyrazolo[1,5-a]pyrimidin-3-yl)-N-(2-fluoro-3-hydroxy-3-methylbutyl)-4-((1-(2-methoxyethyl)-1H-pyrazol-4-yl)amino)nicotinamide] |
| 5 | 14.8 | 870 | CC[C@H](F)CNc1cc(-c2cnn3cc(Cl)cnc23)ncc1C(=O)NC[C@@H](F)C(C)(C)O [Example 158, 6-(6-chloropyrazolo[1,5-a]pyrimidin-3-yl)-N—((R)-2-fluoro-3-hydroxy-3-methylbutyl)-4-(((S)-2-fluorobutyl)amino)nicotinamide] |
| 4 | 6.5 | 660 | CC(C)OC1CC(Nc2cc(-c3cnn4cc(Cl)cnc34)ncc2C(=O)NC[C@@H](F)C(C)(C)O)CC1(F)F (single isomer, unassigned) [Example 15] |
| 4 | 22.1 | 1720 | CC(C)(O)[C@H]1CC[C@H](NC(=O)c2cnc(-c3cnn4cc(Cl)cnc34)cc2NC2COC2)CC1 [Example 40, 6-(6-chloropyrazolo[1,5-a]pyrimidin-3-yl)-N-((1r,4r)-4-(2-hydroxypropan-2-yl)cyclohexyl)-4-(oxetan-3-ylamino)nicotinamide] |
| 7 | 4.7 | 820 | Cc1cnn2c(-c3cc(NC4CCC4)c(C(=O)NC[C@@H](F)C(C)(C)O)cn3)cnc2c1 [Example 185, (R)-4-(cyclobutylamino)-N-(2-fluoro-3-hydroxy-3-methylbutyl)-6-(7-methylimidazo[1,2-b]pyridazin-3-yl)nicotinamide] |
| 1 | 7.6 | 410 | CC(C)(O)[C@H](F)CNC(=O)c1cnc(-c2cnn3cc(Cl)cnc23)cc1Nc1cnn(CC2CC2)c1 [Example 251, (R)-6-(6-chloropyrazolo[1,5-a]pyrimidin-3-yl)-4-((1-(cyclopropylmethyl)-1H-pyrazol-4-yl)amino)-N-(2-fluoro-3-hydroxy-3-methylbutyl)nicotinamide] |
| 2 | 16.2 | 11100 | CC(C)(O)[C@H](F)CNC(=O)c1cnc(-c2cnn3cc(Cl)cnc23)cc1NC1CC1 [Example 22, (R)-6-(6-chloropyrazolo[1,5-a]pyrimidin-3-yl)-4-(cyclopropylamino)-N-(2-fluoro-3-hydroxy-3-methylbutyl)nicotinamide] |
| 3 | < 1.5 | 270 | CNC(=O)c1ccc(Nc2cc(-c3cnn4cc(C#N)cnc34)ncc2C(=O)NC[C@@H](F)C(C)(C)O)cc1 [Example 110, (R)-6-(6-cyanopyrazolo[1,5-a]pyrimidin-3-yl)-N-(2-fluoro-3-hydroxy-3-methylbutyl)-4-((4-(methylcarbamoyl)phenyl)amino) nicotinamide] |
| 6 | < 1.5 | 330 | CC(C)(O)[C@H](F)CNC(=O)c1cnc(-c2cnc3cc(C#N)cnn23)cc1Nc1cc2n(n1)CCN(CC(F)F)C2 [Example 280, (R)-6-(7-cyanoimidazo[1,2-b]pyridazin-3-yl)-4-((5-(2,2-difluoroethyl)-4,5,6,7-tetrahydropyrazolo[1,5-a]pyrazin-2-yl)amino)-N-(2-fluoro-3-hydroxy-3-methylbutyl)nicotinamide] |
| 2 | 5.5 | 180 | CC(C)(O)[C@H]1CC[C@H](NC(=O)c2cnc(-c3cnc4cc(C#N)cnn34)cc2Nc2cnn(C3CC3)c2)CC1 [Example 286, 6-(7-cyanoimidazo[1,2-b]pyridazin-3-yl)-4-((1-cyclopropyl-1H-pyrazol-4-yl)amino)-N-((1r,4r)-4-(2-hydroxypropan-2-yl)cyclohexyl) nicotinamide] |
| 4 | 4.2 | 460 | CC(F)(F)CNc1cc(-c2cnn3cc(C#N)cnc23)ncc1C(=O)NC[C@@H](F)C(C)(C)O [Example 172, (R)-6-(6-cyanopyrazolo[1,5-a]pyrimidin-3-yl)-4-((2,2-difluoropropyl)amino)-N-(2-fluoro-3-hydroxy-3-methylbutyl)nicotinamide] |

Reference: patent US10618903B2, “Heteroaryl substituted aminopyridine compounds” (BRISTOL-MYERS SQUIBB COMPANY, priority 2015, dated 2020)
